Test results reported in article PMC10945480 (Journal of Medicinal Chemistry, 2024).
Like-named read-outs stand apart in the source and are kept apart here.

What was measured:
[1] = Parallel artificial membrane permeability assay (PAMPA); conditions: 50 μM, 25 ℃, 3 h, verapamil = 100%, ranitidine = 0%
Description: 1. Parallel artificial membrane permeability assay (PAMPA). […]
evolution instruments from pION Inc. In the PAMPA assay, a set of sandwich plates consists of a 96-well microtiter donor plate at the bottom and a 96-well filter acceptor plate on the top from […]
The stock solutions of samples were prepared at 10 mM concentrations in DMSO and stored at 0 ℃ before use. Before being added to a 96-well filter plate, the stock solution was diluted first with buffer to achieve a final sample concentration of 50 μM and to reduce the DMSO concentration below 1% (v/v). Each well of the 96-well donor plate was filled with a 200 μL diluted sample solution (50 μM), and the 96-well filter acceptor plate was then wetted with a 5 μL 2% w/v dioleyoylphosphatidylcholine (DOPC) in n-dodecane and subsequently placed on the donor wells.
Immediately, the acceptor wells were filled with 200 μL of buffer solution and the PAMPA plate sandwich was sealed and incubated at 25 ℃ for 3 h. After reaching the permeation time, the PAMPA plate sandwich was separated and transferred to 96-well UV plates respectively. The amounts of drugs in both the donor and acceptor compartments were measured by comparing the experimental spectra with the UV spectrum (220∼400 nm) obtained from reference standards.

[2] = test system: breast cancer MDA-MB-231; assay: Cell viability, resazurin assay, MDA-MB-231; conditions: Homo sapiens, MDA-MB-231, 24 h, read-out: MDA-MB-231 IC50
Description: (§4) Cells were maintained in a humidified incubator at 37 °C in 5% CO2, and cell viability was determined with the resazurin assay (Cayman Chemical, USA) after the incubation with compounds for indicated concentrations and times or DMSO as control.[72]

[3] = target: Human rPDI (Homo sapiens, UniProt P07237); assay: Effect of GSH on rPDI inhibition (Di-E-GSSG assay); assay type: biochemical; conditions: 10 μM compound, 1 mM GSH vs 5 μM DTT
Description: (§1) GSH is the major cellular nonprotein thiol, which exists within cells at millimolar concentrations (1–8 mM) while is present extracellularly at only a few micromolar.[53] The high concentrations of intracellular GSH thus may compete with the binding of PDI to covalent PDI inhibitors.[54] […] In this assay, the noncovalent PDI inhibitor isoquercetin was used as a negative control.
Data are mean ± SEM of three independent experiments.

[4] = test system: washed human platelets; assay: U46619-induced platelet aggregation; assay type: cell-based; conditions: Platelet; washed human platelets, U46619 (1 μM)
Description: (§2) The antiplatelet effects of the JUG derivatives were evaluated by measuring human platelet aggregation, which can be regulated by cell surface PDI. Platelet aggregation was induced with platelet activators U46619 (a mimetic of thromboxane A2) and collagen (binding to GPVI).
(§3) Washed human platelets were prepared from acid citrate dextrose-anticoagulated blood of healthy human volunteers as described previously.[73] The study was approved by the Institutional Review Board of Kaohsiung Medical University, and informed consent was obtained from every volunteer. Platelet aggregation was measured by using a turbidimetric aggregometer (Chrono-Log Co., USA) under stirring conditions (1200 rpm) at 37 °C. The extent of platelet aggregation was measured as the maximal increase of light transmission after the addition of the stimulators U46619 and collagen.[73] In the TCIPA assay, platelet aggregation was induced by A549 (1 × 10^4 cells/mL), MDA-MB-231 (1 × 10^2 cells/mL), or RPMI8226 (1 × 10^5 cells/mL) cancer cells in the presence of 0.375% plasma.[74]

[5] = test system: multiple myeloma RPMI8226; assay: Cell viability, resazurin assay, RPMI8226; conditions: for IC50: Homo sapiens; for S.I. (EAhy926/RPMI8226), selectivity index: 24 h IC50 ratio
Description: as §4

[6] = test system: washed human platelets; assay: Collagen-induced platelet aggregation; assay type: cell-based; conditions: Platelet; washed human platelets, collagen (5 μg/mL)
Description: as §2, §3

[7] = target: platelet surface PDI (Homo sapiens, UniProt P07237); assay: Cell surface PDI reductase activity on intact human platelets (Di-E-GSSG assay); conditions: read-out: Surface PDI IC50; intact human platelets, Di-E-GSSG, 5 μM DTT
Description: (§5) In this assay, a nonfluorescent substrate, dieosin glutathione disulfide (Di-E-GSSG), was reduced into a fluorescent product eosin-glutathione (E-GSH) by platelet surface PDI in the presence of 5 μM dithiothreitol (DTT).

[8] = test system: glioma U87; assay: Cell viability, resazurin assay, U87; conditions: Homo sapiens, 24 h, read-out: U87 IC50
Description: as §4

[9] = target: purified human recombinant PDI (rPDI) (Homo sapiens, UniProt P07237); assay: Recombinant PDI reductase activity (Di-E-GSSG assay); conditions: human recombinant PDI, Di-E-GSSG
Description: as §5

[10] = test system: human vascular endothelial EA.hy926 cells; assay: Cell viability, resazurin assay, EA.hy926; conditions: EA.hy 926, 24 h, read-out: EAhy926 IC50
Description: as §4

[11] = test system: lung cancer A549; assay: Cell viability, resazurin assay, A549; conditions: Homo sapiens, A549, 24 h, read-out: A549 IC50
Description: as §4

[12] = test system: A549 cancer cells; assay: Platelet-enhanced tumor cell proliferation; assay type: cell-based, human; conditions: A549 plus platelets, 48 h, 0.5 to 2 μM
Description: In order to examine platelet-enhanced cancer cell growth, A549 cancer cells were coincubated with platelets for 48 h.
Figure 5 Inhibitory effects of JUG derivatives 18 and 22 on tumor cell-induced platelet secretion and platelet-enhanced tumor cell proliferation. (a) Washed human platelets were coincubated with A549 cancer cells under the same conditions as described in Figure 4. Secretion of PDGF and ATP were determined with the enzyme-linked immunosorbent assay (ELISA) and bioluminescent assay, respectively. (b) A549 cancer cells were coincubated with washed human platelets at 37 °C and 5% CO2 in a cell culture incubator for 48 h. After washing with PBS, the numbers of viable cancer cells were determined by trypan blue exclusion. Data are mean ± SEM of at least three independent experiments. In (a), *P < 0.05; **P < 0.01; ***P < 0.001 as compared with vehicle control (DMSO). In (b), *P < 0.05; **P < 0.01; ***P < 0.001 as compared with A549 cells plus platelets.
A549 cells (1 × 10^4 cells/well) were seeded in a 96-well plate and coincubated with wash human platelets (1 × 10^7 cells/well) containing with 0.375% plasma for 48 h at 37 °C and 5% CO2 in a cell culture incubator. After washing with phosphate buffered saline, the numbers of viable cancer cells were determined by trypan blue exclusion.

[13] = test system: washed human platelets coincubated with A549 cancer cells; assay: Tumor cell-induced platelet secretion (PDGF, ATP); assay type: cell-based
Description: (a) Washed human platelets were coincubated with A549 cancer cells under the same conditions as described in Figure 4. Secretion of PDGF and ATP were determined with the enzyme-linked immunosorbent assay (ELISA) and bioluminescent assay, respectively. (b) A549 cancer cells were coincubated with washed human platelets at 37 °C and 5% CO2 in a cell culture incubator for 48 h. After washing with PBS, the numbers of viable cancer cells were determined by trypan blue exclusion. Data are mean ± SEM of at least three independent experiments.
Washed human platelets were coincubated with cancer cells under the same conditions as described in the TCIPA assay. After a 25 min incubation in the aggregometer, the samples were centrifuged at 13,000g for 1 min. The concentrations of PDGF-BB and ATP in the supernatants were determined using an ELISA kit (Abcam, Cambridge, UK) and an ATP bioluminescent assay kit (Sigma, MO, USA), respectively.[52]

[14] = target: T1, ERp57 (PDIA3) (Homo sapiens, UniProt P30101); assay: ERp57 reductase assay (Di-E-GSSG); assay type: biochemical; conditions: ERp57 and ERp72 together, fold higher than required to inhibit PDI
T1 sequence (P30101 25-505): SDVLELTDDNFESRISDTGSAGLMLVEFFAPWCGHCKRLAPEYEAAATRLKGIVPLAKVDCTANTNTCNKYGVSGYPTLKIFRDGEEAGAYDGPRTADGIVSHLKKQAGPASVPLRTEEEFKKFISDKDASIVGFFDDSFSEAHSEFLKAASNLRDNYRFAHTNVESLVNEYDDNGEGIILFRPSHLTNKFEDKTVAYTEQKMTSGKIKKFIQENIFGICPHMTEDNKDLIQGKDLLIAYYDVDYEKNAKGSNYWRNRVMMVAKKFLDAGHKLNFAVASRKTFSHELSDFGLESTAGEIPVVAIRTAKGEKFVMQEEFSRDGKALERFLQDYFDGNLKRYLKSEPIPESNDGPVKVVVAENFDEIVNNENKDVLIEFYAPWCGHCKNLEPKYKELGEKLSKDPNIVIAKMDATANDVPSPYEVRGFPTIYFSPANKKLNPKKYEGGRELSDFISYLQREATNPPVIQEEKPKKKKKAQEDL
Source text: In addition to PDI, ERp57 (PDIA3) and ERp72 (PDIA4) are two other major members of the PDI family in both platelets and A549 cells.[62],[63]

[15] = test system: washed human platelets coincubated with A549, MDA-MB-231, or RPMI8226 cancer cells; assay: Tumor cell-induced platelet aggregation (TCIPA); assay type: cell-based; conditions: 2 μM; A549, MDA-MB-231, RPMI8226 cells, in the presence of plasma
[16] = UPLC-MS analysis of compound metabolites in water with or without GSH; assay type: physicochemical; conditions: 37 °C, 30 min
Description: as §1
Compounds (400 μM) were incubated in water (250 μL) with or without GSH (4 mM) at 37 °C for 30 min. The compound mixture was diluted with methanol (250 μL) and used for UPLC-MS analysis Metabolite analysis was performed on an ACQUITY UPLC I-Class/SQ Detector 2 (Waters, Milford, USA). The reverse phase BEH C18 column (100 mm × 2.1 mm, 1.7 μm, Waters) and VanGuard BEH C18 guard column (5 mm × 2.1 mm, 1.7 μm, Waters) were used. All data were acquired by Empower 3. The mobile phase for LC separation was Millipore water (A) and acetonitrile (B), and the program was as follows: 0.00 min 90% A → 0.50 min 90% A → 6.50 min 5% A → 8.50 min 5% A → 8.60 min 90% A → 9.00 min 90% A; at a rate of 0.4 mL/min for 9.00 min with 5 μL per injection. The temperature of the column oven was maintained at 40 °C. Mass spectrometer parameters were set as follows: cone voltage, 40.0 V, for positive/negative ion mode; desolvation temperature, 200 °C; cone gas flow(N2), 1 L/h; and desolvation gas flow (N2), 650 L/h.

[17] = test system: PDI; set-up: method as in PMID 22565308, PMID 22988091, PMID 27197150, PMID 24070012, PMID 24624466; conditions: reported PDI inhibitors, Figure 1b; read-out: PDI IC50 measured by the insulin-aggregation assay; cited from earlier work
[18] = RPMI-8226, 24 h, read-out: RPMI8226 IC50

purified human recombinant PDI (rPDI), sequence (P07237 18-508): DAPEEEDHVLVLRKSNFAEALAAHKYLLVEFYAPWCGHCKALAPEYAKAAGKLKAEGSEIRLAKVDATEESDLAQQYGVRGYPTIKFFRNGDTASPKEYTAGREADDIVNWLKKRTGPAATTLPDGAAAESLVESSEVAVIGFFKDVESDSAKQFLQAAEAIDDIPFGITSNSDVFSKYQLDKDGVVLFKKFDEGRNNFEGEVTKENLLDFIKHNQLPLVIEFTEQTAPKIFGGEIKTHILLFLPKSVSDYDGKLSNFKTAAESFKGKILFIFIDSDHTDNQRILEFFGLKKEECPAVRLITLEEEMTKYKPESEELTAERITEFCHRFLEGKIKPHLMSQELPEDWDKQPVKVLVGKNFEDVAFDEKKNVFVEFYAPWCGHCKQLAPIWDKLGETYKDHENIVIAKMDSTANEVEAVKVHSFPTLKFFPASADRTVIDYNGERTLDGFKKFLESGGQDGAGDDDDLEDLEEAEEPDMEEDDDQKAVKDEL
platelet surface PDI, sequence (P07237 18-508): as above
Human rPDI, sequence (P07237 18-508): as above

Permeability (%) [1]	IC50 [2]	IC50 [4]	IC50 [5, 18]	IC50 [6]	IC50 [7]	IC50 [8]	IC50 ([9]; read-out: rPDI IC50, 5 μM DTT)	IC50 [11]	SMILES	PDI-inhibitory activity in the presence of GSH [3]	IC50 ([9]; read-out: PDI IC50, Table 4)	IC50 [10]	S.I. (EAhy926/RPMI8226), selectivity index [5]	IC50 [17]	further results
57.45%	4.42 ± 0.98 µM	1.54 ± 0.02 µM	0.66 ± 0.08 µM	0.5 ± 0.08 µM	0.62 ± 0.06 µM	3.22 ± 0.37 µM	0.63 ± 0.12 µM	8.95 ± 0.23 µM	CC(=O)OC[C@H]1O[C@H](OC2=CC(=O)c3cccc(O)c3C2=O)[C@H](OC(C)=O)[C@@H](OC(C)=O)[C@@H]1OC(C)=O [Compound 22, 2-(2,3,4,6-Tetra-α-O-acetylglucopyranosyl)-8-hydroxynaphthalene-1,4-dione]		0.63 ± 0.12 µM	5.42 ± 0.05 µM	8.2		IC50 ([5]; RPMI-8226, 72 h, read-out: RPMI8226 IC50, 72 h): 0.048 µM; platelet-enhanced cancer cell growth [12]: to a lesser extent; tumor cell-induced increase in extracellular PDGF and ATP (platelet secretion) [13]: reduced; concentrations inhibiting ERp57 and ERp72 relative to PDI [14]: 4 to 7 fold; prevention of TCIPA [15]: significantly prevented TCIPA
28.86%	11.3 ± 1.09 µM	3.54 ± 0.11 µM	3.07 ± 0.29 µM	6.65 ± 1.74 µM	0.46 ± 0.07 µM	7.39 ± 0.22 µM	0.67 ± 0.09 µM	12.6 ± 1.51 µM	CC(=O)OC[C@H]1O[C@@H](SC2=C(c3ccc(O)cc3O)C(=O)c3c(O)cccc3C2=O)[C@H](OC(C)=O)[C@@H](OC(C)=O)[C@@H]1OC(C)=O [Compound 31, 2-(2,4-Dihydroxyphenyl)-3-(2,3,4,6-tetra-O-acetyl-1-thio-β-D-glucopyranose)-8-hydroxynaphthalene-1,4-dione]	largely reduced by GSH		6.87 ± 0.21 µM	2.2		stability in aqueous conditions (UPLC-MS) ([16]; 400 μM in water): easily hydrolyzed in aqueous condition; GSH adduct formation after GSH treatment (UPLC-MS) ([16]; 400 μM, GSH 4 mM): significant amount of GSH addition product
									CCOC(=O)C1(CCOc2ccccc2)CCN(Cc2ccc(O)c(Cl)c2)CC1 [ML359]					0.25 µM	
									N#Cc1cccc(/C=C/C(=O)c2ccc(O)cc2)c1 [BAP-2]					0.93 µM	

SMILES	Permeability (%) [1]	IC50 [2]	IC50 [4]	IC50 [5, 18]	IC50 [6]	IC50 [7]	IC50 [8]	IC50 ([9]; read-out: rPDI IC50, 5 μM DTT)	IC50 [11]	PDI-inhibitory activity in the presence of GSH [3]	IC50 ([9]; read-out: PDI IC50, Table 4)	IC50 [10]	S.I. (EAhy926/RPMI8226), selectivity index [5]	IC50 [17]	further results
O=C1C=CC(=O)c2c(O)cccc21 [JUG (7), 5-hydroxy-1,4-naphthoquinone, reference compound]	83.43%	6.15 ± 0.78 µM	4.45 ± 0.47 µM	3.95 ± 0.7 µM	1.18 ± 0.14 µM	0.63 ± 0.07 µM	7.45 ± 0.33 µM	1.1 ± 0.17 µM	11.9 ± 0.6 µM	completely lost PDI-inhibitory activity	1.1 ± 0.17 µM	5.57 ± 0.02 µM			
